Data on ten compounds can be found in US7408071B2, “N-aryl pyrrolidine derivatives as beta-secretase inhibitors” (Bristol-Myers Squibb Company, priority 2006, dated 2008).

The assay deals with T1, BACE1 enzyme (Homo sapiens, UniProt P56817).
T1 construct: The HEK293-9B.A1 cell line, which overexpresses the BACE1 enzyme, was derived from HEK293 cells; endogenous in cells; washed 48,000xg membrane pellet/homogenate
Kind of assay: Radioligand displacement assay with a radiolabeled BACE inhibitor on HEK293-9B.A1 cell homogenate. Format: binding. The settings on record: displacement of 1 nM tritiated radioligand, HEK293-9B.A1 homogenate, pH 5.0, 1.5 hr at 25° C.; read-out: Activity Rating (activity based on IC50 values). From the text: There are a number of methods by which inhibitors of the BACE enzyme can be identified experimentally. The enzyme can be obtained from membrane samples from natural tissues or cultured cells or can be expressed recombinantly in a host cell by well known methods of molecular biology. The whole enzyme or a portion thereof can be expressed, for example, in bacterial, insect or mammalian cells to obtain a catalytically active enzyme species. The enzymatic activity and/or ligand binding capability of the enzyme can be assessed within these membrane samples, or the enzyme can be purified to varying extents. As an illustrative example, the nucleic acid sequence encoding the pro and catalytic domains of human BACE can be appended on the 5′ end with an untranslated and signal sequence from the gene for acetylcholinesterase, and on the 3′ end with a sequence encoding a poly-histidine tag. This cDNA can then be expressed in Drosophila melanogaster S2 cells in which the signal and pro sequences of the transcribed/translated protein are removed by cellular proteases and the catalytic domain, appended by a C-terminal poly-histidine tag, is secreted out into the cellular medium. The enzyme can then be purified from the culture medium by nickel affinity chromatography by methods well known to those trained in the art [Mallender, W. et al., (2001) “Characterization of recombinant, soluble beta-secretase from an insect cell expression system.” Mol. Pharmacol. 59: 619-626]. Similar strategies for expressing and purifying various forms of BACE in bacterial, mammalian and other cell types would be known to one skilled in the art. A preferred method for determining the potency of a test compound in binding to the BACE enzyme is by monitoring the displacement of a suitable radioligand.
Radioligand displacement assays with a radiolabeled BACE inhibitor (WO 2004 013098, compound 3, where the methoxy group is substituted for C(^3H)3) were carried out using standard methods (Keen, M. (1999) in Receptor Binding Techniques (Walker, J. M. ed) p. 106 Humana Press, Totowa, N.J.). The HEK293-9B.A1 cell line, which overexpresses the BACE1 enzyme, was derived from HEK293 cells (Simmons, N. L. (1990) A cultured human renal epithelioid cell line responsive to vasoactive intestinal peptide. Exp. Physiol. 75:309-19.) by RAGE™ (Harrington, J. J. et al. (2001) Creation of genome-wide protein expression libraries using random activation of gene expression. Nat. Biotechnol. 19:440-5.; U.S. Pat. Nos. 6,410,266 and 6,361,972). T225 flask cultures of HEK293-9B.A1 were grown to 80% confluency in DMEM supplemented with 2 mM L-glutamine, 10 μg/ml penicillin, 10 μg/ml streptomycin, 3 μg/ml puromycin, 100 nM methotrexate, and 10% fetal bovine serum (Invitrogen, Carlsbad, Calif.), harvested, and resuspended at 2×10^8 cells per 10 ml of lysis buffer consisting of 50 mM HEPES pH 7.0 containing a protease inhibitor cocktail of AEBSF 104 μM, aprotinin 80 nM, leupeptin 2 μM, bestatin 4 μM, pepstatin A 1.5 μM, and E-64 1.4 μM (0.1% of protease inhibitor cocktail P8340, Sigma-Aldrich, St. Louis, Mo.) at 4° C. The resuspended cells were homogenized using a Polytron (Brinkman, Westbury, N.Y.) at setting 6 for 10 sec., then centrifuged at 48,000×g for 10 min. The resulting pellet was washed by repeating the resuspension, homogenization and centrifugation steps. The final pellet was resuspended in buffer at 4° C. to yield a total protein concentration of 5 mg/ml, then aliquots were frozen in liquid nitrogen for further storage at −70° C. Immediately before carrying out a binding assay, an aliquot of cell homogenate was thawed and diluted to a concentration of 100 μg/ml in assay buffer consisting of 50 mM HEPES pH 5.0 and 0.1% CHAPSO. […]

Bounds are passed on as bounds.

T1 sequence (P56817 46-501): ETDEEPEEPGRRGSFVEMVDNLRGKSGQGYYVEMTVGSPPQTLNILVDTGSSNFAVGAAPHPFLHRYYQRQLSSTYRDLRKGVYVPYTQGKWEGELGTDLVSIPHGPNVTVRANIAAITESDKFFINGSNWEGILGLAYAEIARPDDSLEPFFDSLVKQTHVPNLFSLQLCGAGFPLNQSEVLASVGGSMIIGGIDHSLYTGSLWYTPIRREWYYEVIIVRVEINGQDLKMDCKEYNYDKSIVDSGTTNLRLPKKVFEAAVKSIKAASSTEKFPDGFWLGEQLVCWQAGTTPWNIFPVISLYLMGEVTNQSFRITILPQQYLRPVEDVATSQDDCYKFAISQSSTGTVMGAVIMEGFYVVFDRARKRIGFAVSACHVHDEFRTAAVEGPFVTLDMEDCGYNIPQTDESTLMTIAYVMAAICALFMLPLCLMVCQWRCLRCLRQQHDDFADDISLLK

As for `N/C(=N\C(=O)[C@@H]1CCCN1c1ccccc1)NCc1cc(Cl)c(N)c(Cl)c1` [Example 1, (S)—N-((4-Amino-3,5-dichlorobenzylamino)(amino)methylene)-1-phenylpyrrolidine-2-carboxamide], the IC50 fell in the range of 100 to 1000 nM.

For `CC(=O)Nc1c(Cl)cc(CN/C(N)=N/C(=O)[C@@H]2CCCN2c2ccccc2)cc1Cl` [Example 2, (S)—N-((4-Acetamido-3,5-dichlorobenzylamino)(amino)methylene)-1-phenylpyrrolidine-2-carboxamide], the IC50 lay in the range of 100 to 1000 nM.

As to `CN(C)CC(=O)Nc1c(Cl)cc(CN/C(N)=N/C(=O)[C@@H]2CCCN2c2ccccc2)cc1Cl` [Example 3, (S)—N-((3,5-Dichloro-4-(2-(dimethylamino)-acetamido)-benzylamino)(amino)methylene)-1-phenylpyrrolidine-2-carboxamide], the IC50 is 100 to 1000 nM.

In the case of `COc1ccc(N2CCC[C@H]2C(=O)/N=C(\N)NCc2cc(Cl)c(N)c(Cl)c2)cc1` [Example 4, (S)—N-((4-Amino-3,5-dichlorobenzylamino)(amino)methylene)-1-(4-methoxyphenyl)pyrrolidine-2-carboxamide], the IC50 is 100 to 1000 nM.

`COc1ccc(N2CCC[C@H]2C(=O)/N=C(\N)NCc2cc(Cl)c(NC(C)=O)c(Cl)c2)cc1` [Example 5, (S)—N-((4-Acetamido-3,5-dichlorobenzylamino)(amino)methylene)-1-(4-methoxyphenyl)pyrrolidine-2-carboxamide]: the IC50 lay within 100 to 1000 nM.

With `COc1ccc(N2CCC[C@H]2C(=O)/N=C(\N)NCc2cc(Cl)c(NC(=O)CN(C)C)c(Cl)c2)cc1` [Example 6, (S)—N-((3,5-Dichloro-4-(2-(dimethylamino)acetamido)benzylamino)-(amino)methylene)-1-(4-methoxyphenyl)pyrrolidine-2-carboxamide], the IC50 was 100 to 1000 nM.

With `CN(C)CC(=O)Nc1c(Cl)cc(CN/C(N)=N/C(=O)[C@H]2CCCN2c2ccc(C(F)(F)F)cc2)cc1Cl` [Example 31, (R)—N-(Amino(3,5-dichloro-4-(2-(dimethylamino)acetamido)-benzylamino)methylene)-1-(4-(trifluoromethyl)phenyl)pyrrolidine-2-carboxamide], the IC50 was less than 100 nM.

Regarding `CO[C@@H]1C[C@@H](C(=O)/N=C(\N)NCc2cc(Cl)c(NC(C)=O)c(Cl)c2)N(c2ccccc2)C1` [Example 32, (2S,4R)—N-((4-Acetamido-3,5-dichlorobenzylamino)(amino)-methylene)-4-methoxy-1-phenylpyrrolidine-2-carboxamide], the IC50 is less than 100 nM.

As for `CO[C@@H]1C[C@@H](C(=O)/N=C(\N)NCc2cc(Cl)c(NC(=O)CN(C)C)c(Cl)c2)N(c2ccccc2)C1` [Example 33, (2S,4R)—N-(Amino(3,5-dichloro-4-(2-(dimethylamino)acetamido)benzylamino)methylene)-4-methoxy-1-phenylpyrrolidine-2-carboxamide], the IC50 is less than 100 nM.

Regarding `CC(=O)Nc1c(Cl)cc(CN/C(N)=N/C(=O)C2C3CC3CN2c2ccccc2)cc1Cl` (stereo not drawn) [Example 34, cis-N-((4-Acetamido-3,5-dichlorobenzylamino)(amino)methylene)-3-phenyl-3-azabicyclo[3.1.0]hexane-2-carboxamide], the IC50 lay within 100 to 1000 nM.

As a reminder, the IC50 is the midpoint of a concentration-inhibition curve.
